“And” between values parts separate entries of the source, which are not always exact repeats. Equal values may be shown once. Read-outs that look alike come from different tables or passages of the source.
Columns and labels:
Assay type in all cases: physicochemical
[1] = LNP encapsulation efficiency of RNA (Ribogreen fluorescence assay); settings: sgRNA:mRNA 1:2
How it was run: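 RiboGreen fluorescence (ex 488/em 525 nm) measured total RNA in 1×TE with 0.2% Triton X-100 and free RNA in 1×TE alone, against standard curves of the starting RNA; encapsulation = (total − free)/total. Total RNA alternatively quantified after Triton disruption by RP-IP HPLC, UV 260 nm.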

[2] = LNP average particle size and polydispersity by dynamic light scattering; settings: sgRNA:mRNA 1:2; for Number mean (average particle size) / PDI (polydispersity index) / Z-avg (average particle size): LNP with 50% ionizable lipid, 3% C13 Ether (LNP #1, Compound 53: 3% PEG2K-DMG instead)
How it was run: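 Z-average (intensity-based) and number-mean diameters plus PDI measured by DLS on LNP samples diluted in PBS. LNPs carried sgRNA and Cas9 mRNA at 1:2 w/w, with lipids at 50% ionizable lipid, 38% cholesterol, 9% DSPC and 3% PEG lipid (PEG2K-DMG, C13 Ether or C14 Ether).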

[3] = pKa of unformulated amine lipid by TNS fluorescence
How it was run: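 Unformulated amine lipid was diluted from ethanol stock to approx. 100 μM in 0.1 M sodium phosphate buffers spanning pH 4.5–9.0 with TNS. Fluorescence read at ex 321/em 448 nm; normalized data fitted sigmoidally to give pKa.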

[4] = Table 3, Experiments 1-13, LNP 50% ionizable lipid, 38% cholesterol, 9% DSPC, 3% PEG2K-DMG
[5] = sodium phosphate buffer, Table 2, unformulated amine lipid, TNS, read-out: Lipid pKa
[6] = LNP with 50% ionizable lipid, 38% cholesterol, 9% DSPC, 3% C13 Ether (LNP #1, Compound 53: 3% PEG2K-DMG instead)

| SMILES | % E (encapsulation efficiency) [1, 4] [%] | Number mean [2, 4] | PDI [2, 4] | Z-avg [2, 4] | pKa [3, 5] | % E (encapsulation efficiency) [1, 6] [%] | % E (encapsulation efficiency) ([1]; Table 7, LNP with 3% C13 Ether) [%] | Number mean (average particle size) ([2]; 38% cholesterol, 9% DSPC) [nm] | PDI (polydispersity index) ([2]; 38% cholesterol, 9% DSPC) | Z-avg (average particle size) ([2]; 38% cholesterol, 9% DSPC) [nm] | Number mean ([2]; Table 7, LNP with 3% C13 Ether) [nm] | PDI ([2]; Table 7, LNP with 3% C13 Ether) | Z-avg ([2]; Table 7, LNP with 3% C13 Ether) [nm] | pKa ([3]; read-out: pKa) |
| --- | --- | --- | --- | --- | --- | --- | --- | --- | --- | --- | --- | --- | --- | --- |
| CCCCCCCCC(CCCCCCCC)OC(=O)CCCC(=O)OCC(COC(=O)CCCC(=O)OC(CCCCCCCC)CCCCCCCC)COC(=O)NCCN1CCCC1 [Compound 29, di(heptadecan-9-yl) O,O′-(2-((((2-(pyrrolidin-1-yl)ethyl)carbamoyl)oxy)methyl)propane-1,3-diyl) diglutarate] | 100 | 67 nm | 0.023 | 74 nm | 7.1 |  |  |  |  |  |  |  |  |  |
| CCCCCCCCC(CCCCCCCC)OC(=O)CCCCCCC(=O)OCC(COC(=O)CCCCCCC(=O)OC(CCCCCCCC)CCCCCCCC)COC(=O)NCCN(CC)CC [Compound 52, O′1,O1-(2-((((2-(diethylamino)ethyl)carbamoyl)oxy)methyl)propane-1,3-diyl) 8,8′-di(heptadecan-9-yl) di(octanedioate)] | 97 | 79 nm | 0.03 | 87 nm | 6.47 | 97 | 97 | 74 | 0.02 | 88 | 79 | 0.01 | 85 |  |
| CCCCCCCCC(CCCCCCCC)OC(=O)CCCC(=O)OCC(COC(=O)CCCC(=O)OC(CCCCCCCC)CCCCCCCC)COC(=O)OCCCN(C)CC [Compound 30, O,O′-(2-((((3-(ethyl(methyl)amino)propoxy)carbonyl)oxy)methyl)propane-1,3-diyl) di(heptadecan-9-yl) diglutarate] | 99 | 64 nm | 0.02 | 71 nm | 6.4 |  |  |  |  |  |  |  |  |  |
| CCCCCCCCC(CCCCCCCC)OC(=O)CCCCCCC(=O)OCC(COC(=O)CCCCCCC(=O)OC(CCCCCCCC)CCCCCCCC)COC(=O)OCCCN1CCCC1 [Compound 65, 8,8′-di(heptadecan-9-yl) O′1,O1-(2-((((3-(pyrrolidin-1-yl)propoxy)carbonyl)oxy)methyl)propane-1,3-diyl) di(octanedioate)] |  |  |  |  |  | 99 |  | 62 | 0.01 | 74 |  |  |  | 6.4 |
| CCCCCCCCC(CCCCCCCC)OC(=O)CCCC(=O)OCC(COC(=O)CCCC(=O)OC(CCCCCCCC)CCCCCCCC)COC(=O)OCCCN1CCCCC1 [Compound 32, di(heptadecan-9-yl) O,O′-(2-((((3-(piperidin-1-yl)propoxy)carbonyl)oxy)methyl)propane-1,3-diyl) diglutarate] | 99 | 59 nm | 0.008 | 63 nm | 5.7 |  |  |  |  |  |  |  |  |  |
| CCCCCCCCC(CCCCCCCC)OC(=O)CCCC(=O)OCC(COC(=O)CCCC(=O)OC(CCCCCCCC)CCCCCCCC)COC(=O)OCCCN(C)C [Compound 31, O,O′-(2-((((3-(dimethylamino)propoxy)carbonyl)oxy)methyl)propane-1,3-diyl) di(heptadecan-9-yl) diglutarate] | 100 | 59 nm | 0.003 | 64 nm | 6.8 |  |  |  |  |  |  |  |  |  |

More lines, now with the values ahead:

| % E (encapsulation efficiency) [1, 4] [%] | Number mean [2, 4] | PDI [2, 4] | Z-avg [2, 4] | pKa [3, 5] | % E (encapsulation efficiency) [1, 6] [%] | % E (encapsulation efficiency) ([1]; Table 7, LNP with 3% C13 Ether) [%] | Number mean (average particle size) ([2]; 38% cholesterol, 9% DSPC) [nm] | PDI (polydispersity index) ([2]; 38% cholesterol, 9% DSPC) | Z-avg (average particle size) ([2]; 38% cholesterol, 9% DSPC) [nm] | Number mean ([2]; Table 7, LNP with 3% C13 Ether) [nm] | PDI ([2]; Table 7, LNP with 3% C13 Ether) | Z-avg ([2]; Table 7, LNP with 3% C13 Ether) [nm] | pKa ([3]; read-out: pKa) | SMILES |
| --- | --- | --- | --- | --- | --- | --- | --- | --- | --- | --- | --- | --- | --- | --- |
| 99 | 78 nm and 83 nm | 0.02 and 0.04 | 95 nm and 91 nm | 6.05 |  |  |  |  |  |  |  |  |  | CCCCC/C=C\C/C=C\CCCCCCCC(=O)OCC(COC(=O)CCCCCC(=O)OCC(CCCC)CCCCCC)COC(=O)OCCCN(CC)CC (stereo not drawn) [Compound 4, 1-(2-butyloctyl) 7-(3-(((3-(diethylamino)propoxy)carbonyl)oxy)-2-((((9Z,12Z)-octadeca-9,12-dienoyl)oxy)methyl)propyl) heptanedioate] |
| 96 | 101 nm | 0.03 | 108 nm | 6.82 |  |  |  |  |  |  |  |  |  | CCCCC/C=C\C/C=C\CCCCCCCC(=O)OCC(CCCCC(=O)OC(CCCC)CCCC)COC(=O)NCCN(CC)CC (stereo not drawn) [Compound 12, 2-((((2-(diethylamino)ethyl)carbamoyl)oxy)methyl)-7-(nonan-5-yloxy)-7-oxoheptyl (9Z,12Z)-octadeca-9,12-dienoate] |
| 97 | 87 nm | 0.01 | 91 nm | 6.38 |  |  |  |  |  |  |  |  |  | CCCCC/C=C\C/C=C\CCCCCCCC(=O)OCC(COC(=O)CCCC(=O)OC(CCCCCCCC)CCCCCCCC)COC(=O)N(C)CCN(CC)CC (stereo not drawn) [Compound 49, 3-(((2-(diethylamino)ethyl)(methyl)carbamoyl)oxy)-2-((((9Z,12Z)-octadeca-9,12-dienoyl)oxy)methyl)propyl heptadecan-9-yl Glutarate] |
| 99 | 70 nm | 0.02 | 78 nm | 6.13 |  |  |  |  |  |  |  |  |  | CCCCC/C=C\C/C=C\CCCCCCCC(=O)OCC(CCCCCCCCC(=O)OC(CCCCCCCC)CCCCCCCC)COC(=O)OCCCN(C)CC (stereo not drawn) [Compound 11, 2-((((3-(ethyl(methyl)amino)propoxy)carbonyl)oxy)methyl)-11-(heptadecan-9-yloxy)-11-oxoundecyl (9Z,12Z)-octadeca-9,12-dienoate] |
| 98 | 58 nm | 0.06 | 66 nm | 6.11 |  |  |  |  |  |  |  |  |  | CCCCC/C=C\C/C=C\CCCCCCCC(=O)OCC(CCCCC(=O)OC(CCCCCCCC)CCCCCCCC)COC(=O)OCCCN(CC)CC (stereo not drawn) [Compound 15, 2-((((3-(diethylamino)propoxy)carbonyl)oxy)methyl)-7-(heptadecan-9-yloxy)-7-oxoheptyl (9Z,12Z)-octadeca-9,12-dienoate] |
| 98 | 76 nm | 0.01 | 81 nm | 6.36 |  |  |  |  |  |  |  |  |  | CCCCC/C=C\C/C=C\CCCCCCCC(=O)OCC(CCCCCCCCC(=O)OC(CCCCCCCC)CCCCCCCCC)COC(=O)CCC(CCCC)OC(=O)NCCN(C)CC (stereo not drawn) [Compound 26, 9-butyl-3-methyl-15-(9-(octadecan-9-yloxy)-9-oxononyl)-7,12-dioxo-8,13-dioxa-3,6-diazahexadecan-16-yl (9Z,12Z)-octadeca-9,12-dienoate] |
| 98 | 68 nm | 0.03 | 74 nm | 6.09 |  |  |  |  |  |  |  |  |  | CCCCC/C=C\C/C=C\CCCCCCCC(=O)OCC(CCCCCCCCC(=O)OCC(CCCC)CCCCCC)COC(=O)OCCCN(CC)CC (stereo not drawn) [Compound 7, 11-((2-butyloctyl)oxy)-2-((((3-(diethylamino)propoxy)carbonyl)oxy)methyl)-11-oxoundecyl (9Z,12Z)-octadeca-9,12-dienoate] |
| 98 | 66 nm | 0.02 | 74 nm | 6.6 |  |  |  |  |  |  |  |  |  | CCCCC/C=C\C/C=C\CCCCCCCC(=O)OCC(COC(=O)CCCC(=O)OC(CCCCCCCC)CCCCCCCC)COC(=O)NCCN1CCCCCC1 (stereo not drawn) [Compound 50, 3-(((2-(azepan-1-yl)ethyl)carbamoyl)oxy)-2-((((9Z,12Z)-octadeca-9,12-dienoyl)oxy)methyl)propyl heptadecan-9-yl Glutarate] |
